Test results reported in article PMC3973950, “Synthesis of 5-arylidine amino-1,3,4-thiadiazol-2-[(N-substituted benzyol)]sulphonamides endowed with potent antioxidants and anticancer activity induces growth inhibition in HEK293, BT474 and NCI-H226 cells” (Medicinal Chemistry Research, 2013).

Key:
[1] = system: HEK 293, M468 and NCI-H226; assay: In vitro cytotoxicity by MTT assay, summary over all cell lines; assay type: cell-based; details: on all cell lines
Experimental: The cancer cell line cultures of HEK 293 ([…]), BT474 (breast cancer cell line) and NCI-H226 (lung cancer) were obtained from Pasteur Institute of India, Coonoor, India, and were cultured in RPMI-1640 and 10 % heat-[…] New born calf serum with antibiotics [penicillin ([…]), streptomycin (100 μg/mL) and amphotericin B (25 μg/mL)]. The cells were maintained at 37 °C in a humidified atmosphere with 5 % CO2 and were subcultured twice a week.
The monolayer cell culture (100 μL) was trypsinized, and the cell count was adjusted to […] using medium containing 10 % new born calf serum. To each well of the 96-well microtitre plate, the diluted cell suspension (approximately 10,000 cells) (0.1 mL) was added and kept for 24 h in incubator at 37 °C in 5 % CO2 atmosphere for cell monolayer formation. After 24 h, when a partial monolayer was formed at the bottom of the well, the supernatant was flicked off, the monolayer was washed once, and different drugs, i.e. synthesized compounds (100 μL), were added to the cells in microtitre plates. The plates were then incubated at 37 °C for 3 days in 5 % CO2 atmosphere, and microscopic examination was carried out and observations recorded every 24 h. After 72 h, the sample solution in the wells was flicked off; MTT dye ([…]) was added to each well; plates were gently shaken and incubated for 4 h at 37 °C in 5 % CO2 incubator. The supernatant was removed and propanol (50 μL) was added; the plates were gently shaken to solubilize the formed formazan. The absorbance was measured using a microplate reader at a wavelength of 490 nm (Edmondson et al., [1988]; Prasad et al., [2005]; Chiruvella et al., [2008]; Chang et al., [2007]).

[2] = system: BT474 (breast cancer cell line); assay: In vitro cytotoxicity by MTT assay, BT474; assay type: cell-based; details: Homo sapiens, 72 h, read-out: % cytotoxicity (100 − % cell survival) of BT474 cell line; for cytotoxicity at 0.005 µM: BT-474, 0.005 μM; for cytotoxicity at 0.015 µM: BT-474, 0.015 μM; for cytotoxicity at 0.045 µM: BT-474, 0.045 μM; for cytotoxicity at 0.13 µM: BT-474, 0.13 μM; for cytotoxicity at 0.41 µM: BT-474, 0.41 μM; for cytotoxicity at 1.23 µM: BT-474, 1.23 μM; for cytotoxicity at 3.7 µM: BT-474, 3.7 μM; for cytotoxicity at 11.11 µM: BT-474, 11.11 μM; for cytotoxicity at 33.33 µM: BT-474, 33.33 μM; for cytotoxicity at 100 µM: BT-474, 100 μM
Method in brief: (§1)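 RPMI-1640, 10 % newborn calf serum; ~10,000 cells/well, 24 h attachment; compound 72 h, 37 °C, 5 % CO2; MTT 4 h; propanol; A490.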

[3] = In vitro cytotoxicity by MTT assay, NCI-H226; assay type: cell-based; details: human, NCI-H226 lung cancer cells, 0.015 μM, read-out: % Cytotoxicity (100 − % cell survival) of NCI-H226 cell line
Method in brief: as §1

[4] = system: NCI-H226 (lung cancer cell line); assay: In vitro cytotoxicity by MTT assay, NCI-H226; assay type: cell-based; details: Homo sapiens, 72 h; for cytotoxicity at 0.005 µM: NCI-H226, 0.005 μM; for cytotoxicity at 0.005 µM / cytotoxicity at 0.045 µM / cytotoxicity at 0.13 µM / cytotoxicity at 0.41 µM / cytotoxicity at 1.23 µM / cytotoxicity at 3.7 µM / cytotoxicity at 11.11 µM / cytotoxicity at 33.33 µM / cytotoxicity at 100 µM: read-out: % Cytotoxicity (100 − % cell survival) of NCI-H226 cell line; for cytotoxicity at 0.045 µM: NCI-H226, 0.045 μM; for cytotoxicity at 0.13 µM: NCI-H226, 0.13 μM; for cytotoxicity at 0.41 µM: NCI-H226, 0.41 μM; for cytotoxicity at 1.23 µM: NCI-H226, 1.23 μM; for cytotoxicity at 3.7 µM: NCI-H226, 3.7 μM; for cytotoxicity at 11.11 µM: NCI-H226, 11.11 μM; for cytotoxicity at 33.33 µM: NCI-H226, 33.33 μM; for cytotoxicity at 100 µM: NCI-H226, 100 μM
Method in brief: as §1

[5] = In vitro cytotoxicity by MTT assay, HEK 293; assay type: cell-based, human; details: human, HEK 293 cells, read-out: % cytotoxicity (100 − % cell survival) of HEK 293 cell line
Method in brief: as §1

[6] = Lipid peroxidation inhibitory activity (egg lecithin liposomes, TBA); assay type: biochemical; details: Conc. ± SD; standard ascorbic acid; read-out: IC50 inhibitory concentration, Lipid peroxidation
Experimental: Egg lecithin (3 mg/mL phosphate buffer, pH 7.4) was sonicated in an ultrasonic sonicator for 10 min to ensure proper liposome formation. Test samples or standard, ascorbic acid (100 μL) of different concentrations (10, 20, 30, 40 50 and 100 μg/mL) was added to liposome mixture (1 mL); the control was without test sample. Lipid peroxidation was induced by adding ferric chloride (10 μL, 400 mM) and L-ascorbic acid (10 μL, 200 mM). After incubation for 1 h at 37 °C, the reaction was stopped by adding hydrochloric acid (2 mL, 0.25 N) containing trichloroacetic acid (150 mg/mL), thiobarbituric acid (3.75 mg/mL) and butylated hydroxy anisole (0.50 mg/mL). The reaction mixture was subsequently boiled for 15 min, cooled and centrifuged at 1,000 rpm for 15 min, and the absorbance of the supernatant was measured at 532 nm (Duh and Yen, [1997]). The % inhibition at different concentrations was calculated by the following formula %Inhibition=[1-(Vt/Vc)]×100 where V t = mean absorption of test compound, V c = mean absorption of control.
The IC50 (nM/mL) value was derived from the % inhibition at different concentrations.

[7] = DPPH radical scavenging activity; assay type: biochemical; details: Conc. ± SD; standard ascorbic acid; read-out: IC50 inhibitory concentration, DPPH radical
Experimental: Compounds of SC series were evaluated for their in vitro free radical scavenging activities by 2,2-diphenyl-1-picrylhydrazyl (DPPH) assay method (Blois, [1958]; Shishoo et al., [1999]; Chhajed et al., [2007]). To determine the free radical scavenging activity, a method based on the reduction of a methanolic solution of the coloured DPPH radical was used. To a set of test tubes containing methanol (3 mL), DPPH reagent (2 mg/mL) (50 μL) was added. The initial absorbance was measured. To these test tubes, methanolic solution of different test solutions (1 mg/mL) were added (10–50 μL). Ascorbic acid (0.5 mg/mL) was also added in the concentration of 10, 20, 30, 40, 50 and 100 μL. After 20 min, absorbance was recorded at 516 nm. The experiment was performed in triplicate. The percentage reduction in absorbance was calculated from the initial and final absorbance of each solution (Dhar and Taploo, [1982]).

[8] = Total antioxidant activity (ABTS radical cation scavenging); assay type: biochemical; details: Conc. ± SD; three independent experiments in duplicate; standard trolox; read-out: IC50 inhibitory concentration, ABTS^+ radical
Experimental: The ability of the test sample to scavenge 2,2′-azinobis-(3-ethylbenzothiazoline-6-sulphonic acid) (ABTS^·+) radical cation was compared with 6-hydroxy-2,5,7,8-tetramethylchroman-2-carboxylic acid (trolox) standard (Chang et al., [2007]; Erel, [2004]; Re et al., [1999]). The ABTS^·+ radical cation was pregenerated by mixing ABTS stock solution (7 mM) with potassium persulphate (2.45 mM) (final concentration) and incubating for 12–16 h in the dark at room temperature until the reaction was complete and the absorbance was stable. The absorbance of the ABTS^·+ solution was equilibrated to 0.70 (±0.02) by diluting with water at room temperature, then 1 mL of solution was mixed with 10 μL of the test sample (0.05–10 mg/mL), and the absorbance was measured at 734 nm after 6 min. All experiments were repeated three times. The percentage inhibition of absorbance was calculated and plotted as a function of the concentration of standard and sample to determine the trolox equivalent antioxidant concentration (TEAC). To calculate the TEAC, the gradient of the plot for the sample was divided by the gradient of the plot for trolox. The IC50 inhibitory concentration (nM/mL) values of tested compounds are depicted in Table 1. The ABTS^·+ radical scavenging activity of the samples was expressed as S%=[(Acontrol-Asample)/Acontrol]×100 where A control is the absorbance of the blank control (ABTS^·+ solution without test sample), and A sample is the absorbance of the test sample.

With Nc1ccc(S(=O)(=O)Nc2nnc(S(=O)(=O)NC(=O)c3cccc([N+](=O)[O-])c3)s2)cc1 [Compound 7f] the “cytotoxic activity compared with all synthesized compounds” value [1] was “more potent”, the cytotoxicity at 0.005 µM [2] was 42.4% and the cytotoxicity at 0.015 µM [2] was 45.8%. It also gave a cytotoxicity at 0.045 µM [2] of 47.2%, a cytotoxicity at 0.13 µM [2] of 50.1% and a cytotoxicity at 0.41 µM [2] of 52.2%. It also gave a cytotoxicity at 1.23 µM [2] of 54.2%, a cytotoxicity at 3.7 µM [2] of 56.7% and a cytotoxicity at 11.11 µM [2] of 58.6%. It also gave a cytotoxicity at 33.33 µM [2] of 60.3%, a cytotoxicity at 100 µM [2] of 64.1% and a cytotoxicity at 72 h, 0.015 µM [3] of 39.3%. The cytotoxicity at 0.005 µM [4] was 38.8%, the cytotoxicity at 0.045 µM [4] was 40.1% and the cytotoxicity at 0.13 µM [4] was 42.6%. For the same molecule, the cytotoxicity at 0.41 µM [4] was 46.1%, the cytotoxicity at 1.23 µM [4] was 52.1% and the cytotoxicity at 3.7 µM [4] was 56.4%. For the same molecule, the cytotoxicity at 11.11 µM [4] was 60.7%, the cytotoxicity at 33.33 µM [4] was 65.8% and the cytotoxicity at 100 µM [4] was 68%. It also gave a CC50 ([4]; NCI-H226, concentration at which 50 % of the cells are dead, read-out: CTC50 (cytotoxicity concentration)) of 1.78 µM, a cytotoxicity at 72 h, 0.005 µM [5] of 33.2% and a cytotoxicity at 72 h, 0.015 µM [5] of 35.1%. It also gave a cytotoxicity at 72 h, 0.045 µM [5] of 36%, a cytotoxicity at 72 h, 0.13 µM [5] of 37% and a cytotoxicity at 72 h, 0.41 µM [5] of 37.5%. The cytotoxicity at 72 h, 1.23 µM [5] was 38.7%, the cytotoxicity at 72 h, 3.7 µM [5] was 39.5% and the cytotoxicity at 72 h, 11.11 µM [5] was 40.6%. For the same molecule, the cytotoxicity at 72 h, 33.33 µM [5] was 41.2% and the cytotoxicity at 72 h, 100 µM [5] was 43.8%.

In the case of O=C(NS(=O)(=O)c1nnc(N=Cc2ccco2)s1)c1ccccc1 [Compound 9j, N-({5-[(Furan-2-ylmethylidene)amino]-1,3,4-thiadiazol-2-yl}sulfonyl)benzamide], the “cytotoxic activity compared with all synthesized compounds” value [1] is reported as “more potent”, the melting point is reported as 261 to 263 °C and the cytotoxicity at 0.005 µM [2] is reported as 30.4%. It also gave a cytotoxicity at 0.015 µM [2] of 34.6%, a cytotoxicity at 0.045 µM [2] of 37.4% and a cytotoxicity at 0.13 µM [2] of 40.1%. The cytotoxicity at 0.41 µM [2] was 43.6%, the cytotoxicity at 1.23 µM [2] was 45.1% and the cytotoxicity at 3.7 µM [2] was 49.3%. The cytotoxicity at 11.11 µM [2] was 52.1%, the cytotoxicity at 33.33 µM [2] was 56.9% and the cytotoxicity at 100 µM [2] was 61.4%. For the same molecule, the cytotoxicity at 72 h, 0.015 µM [3] was 33.2%, the cytotoxicity at 0.005 µM [4] was 33% and the cytotoxicity at 0.045 µM [4] was 34.6%. The cytotoxicity at 0.13 µM [4] was 35.3%, the cytotoxicity at 0.41 µM [4] was 36.1% and the cytotoxicity at 1.23 µM [4] was 37%. The cytotoxicity at 3.7 µM [4] was 39.1%, the cytotoxicity at 11.11 µM [4] was 42.7% and the cytotoxicity at 33.33 µM [4] was 45.4%. For the same molecule, the cytotoxicity at 100 µM [4] was 52.4%, the cytotoxicity at 72 h, 0.005 µM [5] was 31.4% and the cytotoxicity at 72 h, 0.015 µM [5] was 32.8%. It also gave a cytotoxicity at 72 h, 0.045 µM [5] of 33.7%, a cytotoxicity at 72 h, 0.13 µM [5] of 34.3% and a cytotoxicity at 72 h, 0.41 µM [5] of 34.5%. For the same molecule, the cytotoxicity at 72 h, 1.23 µM [5] was 35%, the cytotoxicity at 72 h, 3.7 µM [5] was 35.3% and the cytotoxicity at 72 h, 11.11 µM [5] was 36.1%. For the same molecule, the cytotoxicity at 72 h, 33.33 µM [5] was 36.9% and the cytotoxicity at 72 h, 100 µM [5] was 38.9%.

Work on O=C1O[C@H]([C@@H](O)CO)C(O)=C1O [ascorbic acid, reference compound] yielded an IC50 [6] of 150 ± 16.9 µM and an IC50 [7] of 187 ± 35.4 µM.

Molecule Cc1c(C)c2c(c(C)c1O)CCC(C)(C(=O)O)O2 (stereo not shown) [trolox, 6-hydroxy-2,5,7,8-tetramethylchroman-2-carboxylic acid, reference compound] has an IC50 [8] of 84.5 ± 9.39 µM.
